Laboratory results: ChEMBL document CHEMBL2203269, “Target-Activated Prodrugs (TAPs) for the Autoregulated Inhibition of MMP12” (ACS Med Chem Lett, 2012)
Calls of active or inactive are those of the source. The rule behind the calls is not given here.

Key:
[1] = target: T1, Matrilysin (Homo sapiens) (UniProt P09237); experiment: Activity at MMP7
T1 sequence (whole entry): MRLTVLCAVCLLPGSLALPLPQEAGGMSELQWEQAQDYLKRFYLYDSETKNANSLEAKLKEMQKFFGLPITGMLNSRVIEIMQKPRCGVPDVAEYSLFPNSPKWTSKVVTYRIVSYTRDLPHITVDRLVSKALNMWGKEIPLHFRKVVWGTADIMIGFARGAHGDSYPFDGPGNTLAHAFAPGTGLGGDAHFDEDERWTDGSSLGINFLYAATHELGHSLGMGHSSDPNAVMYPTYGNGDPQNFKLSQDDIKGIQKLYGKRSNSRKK

[2] = target: 72 kDa type IV collagenase (Homo sapiens) (UniProt P08253); experiment: Activity at MMP2
[3] = target: T2, Interstitial collagenase (Homo sapiens) (UniProt P03956); experiment: Activity at MMP1
T2 sequence (whole entry): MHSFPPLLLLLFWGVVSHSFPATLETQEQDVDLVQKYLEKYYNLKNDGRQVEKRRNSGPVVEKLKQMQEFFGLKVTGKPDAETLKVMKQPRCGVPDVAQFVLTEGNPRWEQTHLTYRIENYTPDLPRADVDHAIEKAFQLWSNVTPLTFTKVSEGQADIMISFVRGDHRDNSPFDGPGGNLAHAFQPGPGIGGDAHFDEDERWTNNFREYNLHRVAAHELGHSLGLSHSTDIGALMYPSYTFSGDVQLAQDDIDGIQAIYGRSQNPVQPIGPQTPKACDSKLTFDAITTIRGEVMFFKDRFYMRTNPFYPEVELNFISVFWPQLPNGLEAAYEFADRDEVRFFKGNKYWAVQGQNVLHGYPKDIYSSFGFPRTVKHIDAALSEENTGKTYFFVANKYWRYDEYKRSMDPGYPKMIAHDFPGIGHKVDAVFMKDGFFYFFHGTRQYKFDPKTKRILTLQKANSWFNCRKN

Sequence of 72 kDa type IV collagenase (Homo sapiens) (P08253 110-660 limits assumed): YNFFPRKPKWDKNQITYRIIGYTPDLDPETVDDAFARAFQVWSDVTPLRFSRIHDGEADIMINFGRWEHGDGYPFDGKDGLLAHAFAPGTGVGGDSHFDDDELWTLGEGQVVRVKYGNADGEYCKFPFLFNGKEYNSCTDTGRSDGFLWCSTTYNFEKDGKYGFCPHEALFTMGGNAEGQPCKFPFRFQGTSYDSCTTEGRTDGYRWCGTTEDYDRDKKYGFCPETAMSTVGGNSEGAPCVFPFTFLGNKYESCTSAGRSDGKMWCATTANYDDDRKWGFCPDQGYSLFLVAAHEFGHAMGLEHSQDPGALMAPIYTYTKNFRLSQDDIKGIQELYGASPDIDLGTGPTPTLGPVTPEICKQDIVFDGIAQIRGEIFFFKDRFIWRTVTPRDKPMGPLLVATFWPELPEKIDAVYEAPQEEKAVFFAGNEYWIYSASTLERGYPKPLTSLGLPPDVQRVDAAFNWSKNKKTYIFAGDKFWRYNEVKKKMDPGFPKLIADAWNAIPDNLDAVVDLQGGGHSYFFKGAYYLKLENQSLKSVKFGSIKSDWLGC

Activity [1]: Active | Activity [2]: Active | Activity [3]: Active
SMILES: CC(C)C[C@H](NC(=O)CN(C(=O)[C@H](CC(C)C)NC(=O)[C@@H]1CCCN1C(=O)OCc1ccccc1)S(=O)(=O)c1ccc(-c2ccccc2)cc1)C(=O)N[C@@H](CCC(=O)O)C(=O)N[C@@H](CCC(=O)O)C(=O)N[C@@H](C)C(N)=O
